In US8642794B1, “Biosurfactant compounds produced by Aureobasidium pullulans” (Gyeongbuk Institute for Marine Bio-industry, priority 2012, dated 2014):

Assay: Surface tension measurement with a tensiometer (Sigma 700), aqueous solution dropped onto a hydrophobic film
Type: physicochemical
Details: at 1.0 mg/liter; water as control
Procedure: The compounds L3-E3 and L3-E6 isolated in Examples 2 and 4, respectively, were dropped onto the surface of a hydrophobic film, and their surface tension was measured by using a tensiometer (Sigma 700 Tensiometer, KSV Instruments Ltd., Finland). Here, water was used as a control, and the change in surface tension was measured by using a microbial culture, L3-E3 and L3-E6.

surface tension [dyne/cm] | Structure (SMILES)
36.4 | CCCCCC(O)CC(O)CC(=O)OC(CCCCC)CCCC(=O)OC (centres unmarked) [L3-E6]
29.5 | CCCCCC(O)CC(O)CC(=O)OC(CCCCC)CC(O)CC(=O)OC (centres unmarked) [L3-E3]
